Some test systems named below: HS 578T breast; CCRF-CEM leukemia; LOX IMVI melanoma; MCF7 breast; NCI-H226 lung; OVCAR-5 ovarian; SK-OV-3 ovarian; SK-MEL-28 melanoma; RXF 393 renal; NCI-H460 lung.
Common to all, as to test: inhibition of tumour cell growth, NCI panel, 48 h

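Values below derive from 48-hour exposures of cells grown in 96-well plates, with endpoints linearly interpolated between the two concentrations bracketing the appropriate inhibition level. Abbreviation: GI50, concentration required for 50% inhibition of growth. TGI: total growth inhibition.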 Bounds are passed on as bounds.

Regarding `CCOC(=O)c1nc2ccc(C(F)(F)F)cc2nc1Oc1cc(OC)cc(OC)c1`, the TGI in the test with HS 578T breast was 64.2 µM; with CCRF-CEM leukemia, > 100 µM; in the test on LOX IMVI melanoma it was > 100 µM; in the test on MCF7 breast, > 100 µM; in the test with NCI-H226 lung, > 100 µM; in the test on OVCAR-5 ovarian it was > 100 µM. Further, the TGI in the test on SK-OV-3 ovarian, with SK-MEL-28 melanoma, in the test on RXF 393 renal and with NCI-H460 lung was > 100 µM in each case.

Take `CCOC(=O)c1cc2c(C(=O)c3ccc([N+](=O)[O-])cc3)c(C(C)=O)ccc2[nH]1`: the TGI in the test with HS 578T breast is 50.1 µM; in the test with CCRF-CEM leukemia, > 100 µM; in the test with LOX IMVI melanoma, > 100 µM; with MCF7 breast it was > 100 µM; in the test on NCI-H226 lung, > 100 µM; in the test on OVCAR-5 ovarian it was > 100 µM. The TGI was 51.3 µM in the test with SK-OV-3 ovarian, > 100 µM in the test on SK-MEL-28 melanoma, 80.5 µM with RXF 393 renal and > 100 µM in the test with NCI-H460 lung.

On to `O=C(Nc1nc2ccccc2s1)c1cc([N+](=O)[O-])ccc1Cl`, for which the TGI in the test on HS 578T breast is 15.7 µM; with CCRF-CEM leukemia, 8.77 µM; in the test with LOX IMVI melanoma, 13.7 µM; with MCF7 breast it was > 22.6 µM; in the test on NCI-H226 lung, > 100 µM; with OVCAR-5 ovarian it was > 100 µM. The TGI with SK-OV-3 ovarian is > 100 µM; with SK-MEL-28 melanoma, > 100 µM; in the test with RXF 393 renal, 15.9 µM; in the test on NCI-H460 lung, > 59.4 µM.

Consider `CCCCCCCCCCCCCCCCCCNc1ccn(C2OC(COP(=O)(O)OCC3OC(n4cc(F)c(NCCCCCCCCCCCCCCCCCC)nc4=O)CC3O)C(O)C2O)c(=O)n1` (stereo not given), for which the TGI with HS 578T breast, in the test on CCRF-CEM leukemia, with LOX IMVI melanoma, in the test with MCF7 breast, in the test with NCI-H226 lung and with OVCAR-5 ovarian was > 100 µM in each case. Further, the TGI in the test on SK-OV-3 ovarian, in the test on SK-MEL-28 melanoma, in the test on RXF 393 renal and in the test on NCI-H460 lung was > 100 µM throughout.

On to `Oc1c([Si](c2ccccc2)(c2ccccc2)c2ccccc2)cc2ccccc2c1-c1c(O)c([Si](c2ccccc2)(c2ccccc2)c2ccccc2)cc2ccccc12`, for which the TGI in the test on HS 578T breast, in the test with CCRF-CEM leukemia, in the test on LOX IMVI melanoma, in the test with MCF7 breast, in the test on OVCAR-5 ovarian and with SK-OV-3 ovarian was > 100 µM each time. The TGI in the test on SK-MEL-28 melanoma, with RXF 393 renal and in the test with NCI-H460 lung was > 100 µM throughout.

`CCOc1cc(C2CC(c3ccc(NS(=O)(=O)c4cc([N+](=O)[O-])ccc4C)cc3)=NN2c2ccc([N+](=O)[O-])cc2[N+](=O)[O-])ccc1O` (stereo not given): the TGI is 57.4 µM in the test on HS 578T breast; > 100 µM with CCRF-CEM leukemia; 44.1 µM with LOX IMVI melanoma; 42.1 µM in the test on MCF7 breast; 24 µM in the test on NCI-H226 lung; 60.3 µM in the test on OVCAR-5 ovarian. In addition, the TGI worked out at 10.4 µM with SK-OV-3 ovarian, 89.4 µM in the test on SK-MEL-28 melanoma and 27 µM in the test with RXF 393 renal.

As to `O=C1c2cc3c(cc2CC12Cc1ccc4c(c1C2=O)CCCC4)CCCC3` (stereo not given), the TGI in the test on HS 578T breast was > 100 µM; with CCRF-CEM leukemia it was > 100 µM; in the test with LOX IMVI melanoma, > 100 µM; in the test with MCF7 breast, > 100 µM; with OVCAR-5 ovarian, > 100 µM; in the test on SK-OV-3 ovarian it was 87.4 µM. For the same compound, the TGI in the test on SK-MEL-28 melanoma, in the test on RXF 393 renal and in the test on NCI-H460 lung was > 100 µM throughout.

`CCOC(=O)c1cc2c3c(c(C(C)=O)c(O)c2[nH]1)N(CC(C)CC)CC3` (stereo not given): the TGI was 51.4 µM in the test on HS 578T breast; > 100 µM in the test with CCRF-CEM leukemia; > 100 µM in the test with LOX IMVI melanoma; > 100 µM in the test with MCF7 breast; > 100 µM with NCI-H226 lung; > 100 µM in the test with SK-OV-3 ovarian. For the same compound, the TGI with SK-MEL-28 melanoma, in the test with RXF 393 renal and in the test with NCI-H460 lung was > 100 µM in each case.

Consider `COc1ccc(C(=O)/C=C/c2c(Cl)c3c(c(OC)c2Cl)OCC(=O)N3)cc1`, for which the GI50 is 4.43 µM with HS 578T breast; 1.87 µM with CCRF-CEM leukemia; 1.36 µM with LOX IMVI melanoma; 2.32 µM in the test on MCF7 breast; 7.08 µM in the test with NCI-H226 lung; 3.86 µM in the test on OVCAR-5 ovarian. For the same compound, the GI50 was 3.59 µM in the test with SK-OV-3 ovarian, 2.18 µM in the test on SK-MEL-28 melanoma and 1.79 µM in the test on RXF 393 renal. Also, the TGI in the test with HS 578T breast was 50.4 µM; with CCRF-CEM leukemia, 8.44 µM; in the test with LOX IMVI melanoma, 2.88 µM; with MCF7 breast it was > 100 µM; in the test with NCI-H226 lung it was > 100 µM; with OVCAR-5 ovarian, > 100 µM. In addition, the TGI in the test on SK-OV-3 ovarian was found to be 27.1 µM; with SK-MEL-28 melanoma it was 5.22 µM; with RXF 393 renal, 3.54 µM.

In the case of `N#Cc1c(-c2ccc(Cl)cc2)c2c(n(C3OC(CO)C(O)C(O)C3O)c1=S)CCC2` (stereo not given), the TGI in the test with HS 578T breast is 84.3 µM; with CCRF-CEM leukemia, 56.7 µM; in the test on LOX IMVI melanoma it was 34.3 µM; in the test with MCF7 breast, 40.9 µM; with OVCAR-5 ovarian, > 100 µM; in the test on SK-OV-3 ovarian, > 100 µM. Besides, the TGI in the test on SK-MEL-28 melanoma is 32.9 µM; in the test with RXF 393 renal, 63.2 µM; in the test with NCI-H460 lung, > 100 µM.

On to `O=C(Cn1c(C(=O)/C=C/c2cccs2)nc2ccccc21)c1ccc(Cl)cc1`, for which the TGI is 38.7 µM in the test with HS 578T breast; 27.3 µM in the test with LOX IMVI melanoma; 48.4 µM in the test with MCF7 breast; > 100 µM in the test with NCI-H226 lung; > 100 µM with OVCAR-5 ovarian; > 100 µM in the test on SK-OV-3 ovarian. The TGI in the test on SK-MEL-28 melanoma is > 100 µM; in the test on RXF 393 renal it was > 100 µM; in the test with NCI-H460 lung, 25.8 µM.

Take `Cc1cn(Cc2cnnn2CC2OC(n3cc(C)c(=O)[nH]c3=O)CC2O)c(=O)[nH]c1=O` (stereo not given): the TGI in the test with HS 578T breast, in the test on CCRF-CEM leukemia, in the test with LOX IMVI melanoma, in the test with MCF7 breast, in the test with NCI-H226 lung and in the test with OVCAR-5 ovarian was > 100 µM in each case. Also, the TGI with SK-OV-3 ovarian, with SK-MEL-28 melanoma and in the test with RXF 393 renal was > 100 µM throughout.

Turning to `CC1CC/C(=C\c2ccc(Cl)cc2)C2OC(N)=C(C#N)C(c3ccc(Cl)cc3)=C12` (stereo not given), the TGI in the test on HS 578T breast stood at 49.1 µM; in the test with CCRF-CEM leukemia it was 31.2 µM; with LOX IMVI melanoma, 26.6 µM; in the test on MCF7 breast it was 29.8 µM; in the test on NCI-H226 lung, 27.1 µM; in the test with OVCAR-5 ovarian, 37.5 µM. The results for the TGI in the test on SK-OV-3 ovarian, in the test with SK-MEL-28 melanoma and in the test on RXF 393 renal were 40 µM, 37.5 µM and 71.8 µM, respectively.
